Like-named read-outs stand apart in the source and are kept apart here.
How the values were obtained:
Format in all cases: in vivo
Setaria viridis (SETVI) [1] = test: Post-emergence herbicidal action against SETVI
Method in brief: (§1)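 Rates were 320 g/ha or below, applied as aqueous WP/EC spray with 0.5% additive (600 l/ha) onto one-leaf-stage plants. About 3 weeks later in the greenhouse, damage was scored visually against untreated plants on a 0–100% scale, where 100% means plants died.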

[2] = test system: Polygonum convolvulus (POLCO); test: Pre-emergence herbicidal action against POLCO; conditions: dosage 320 g/ha
Method in brief: (§2)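 Greenhouse pot trial: seeds sown, soil-covered, sprayed before emergence with compound in water (0.5% additive; 600 l/ha; ≤320 g/ha). Scoring visual, ~3 weeks, 0–100% scale vs untreated.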

Lolium rigidum (LOLRI) [3] = test: Pre-emergence herbicidal action against LOLRI
Method in brief: as §2

[4] = test system: Amaranthus retroflexus (AMARE); test: Pre-emergence herbicidal action against AMARE; conditions: visual scoring after about 3 weeks vs untreated controls
Method in brief: as §2

[5] = test system: Abutilon theophrasti (ABUTH); test: Pre-emergence herbicidal action against ABUTH; conditions: 100% = plants have died
Method in brief: as §2

[6] = test system: Alopecurus myosuroides (ALOMY); test: Post-emergence herbicidal action against ALOMY; conditions: visual rating about 3 weeks after treatment vs untreated controls (100% = plants have died, 0% = like control plants)
Method in brief: as §1

Lolium rigidum (LOLRI) [7] = test: Post-emergence herbicidal action against LOLRI
Method in brief: as §1

[8] = test system: Alopecurus myosuroides (ALOMY); test: Pre-emergence herbicidal action against ALOMY; conditions: scored visually after about 3 weeks, 100% = plants have died
Method in brief: as §2

[9] = test system: Pharbitis purpurea (PHBPU); test: Pre-emergence herbicidal action against PHBPU; conditions: dosage 320 g/ha
Method in brief: as §2

[10] = test system: Polygonum convolvulus (POLCO); test: Post-emergence herbicidal action against POLCO; conditions: dosage 320 g/ha
Method in brief: as §1

Oryza sativa (ORYSA) = conditions: crop plant compatibility, 80 g/ha, effect in comparison to untreated controls
Method in brief: (§3)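 One-leaf-stage crops (2–3 wk post-sowing, sandy loam, greenhouse) sprayed on green parts; 0.5% additive, 600 l/ha water. Rated by eye ~3 wk later, % vs untreated; suffixes a/b/c mark different dosages.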

Zea mays (ZEAMX) [11] = conditions: crop plant compatibility, 80 g/ha, effect vs untreated controls
Method in brief: as §3

Viola tricolor (VIOTR) [12] = test: Pre-emergence herbicidal action against VIOTR
Method in brief: as §2

Setaria viridis (SETVI) [13] = test: Pre-emergence herbicidal action against SETVI
Method in brief: as §2

Avena fatua (AVEFA) [14] = test: Pre-emergence herbicidal action against AVEFA; conditions: visual scoring after about 3 weeks vs untreated controls
Method in brief: as §2

[15] = test system: Amaranthus retroflexus (AMARE); test: Post-emergence herbicidal action against AMARE
Method in brief: as §1

[16] = test system: Abutilon theophrasti (ABUTH); test: Post-emergence herbicidal action against ABUTH; conditions: visual rating about 3 weeks after treatment vs untreated controls (100% = plants have died, 0% = like control plants)
Method in brief: as §1

[17] = test system: Verconica persica (VERPE); test: Post-emergence herbicidal action against VERPE
Method in brief: as §1

Zea mays (ZEAMX) [18] = conditions: pre-emergence, 80 g/ha, crop plant compatibility, in comparison to untreated controls
Method in brief: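 Scoring: visual, % of untreated control, about 3 weeks after a pre-emergence application to the soil surface. Application used WP or EC formulations diluted in water with 0.5% additive at 600 l/ha; dosage levels are marked by suffixes a, b and c.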

[19] = test system: Matricaria inodora (MATIN); test: Pre-emergence herbicidal action against MATIN
Method in brief: as §2

Viola tricolor (VIOTR) [20] = test: Post-emergence herbicidal action against VIOTR
Method in brief: as §1

[21] = test system: Echinochloa crus-galli (ECHCG); test: Post-emergence herbicidal action against ECHCG
Method in brief: as §1

[22] = test system: Echinochloa crus-galli (ECHCG); test: Pre-emergence herbicidal action against ECHCG
Method in brief: as §2

Avena fatua (AVEFA) [23] = test: Post-emergence herbicidal action against AVEFA; conditions: 320 g/ha, visual rating about 3 weeks after treatment
Method in brief: as §1

[24] = test system: Verconica persica (VERPE); test: Pre-emergence herbicidal action against VERPE; conditions: dosage 320 g/ha
Method in brief: as §2

[25] = test system: Pharbitis purpurea (PHBPU); test: Post-emergence herbicidal action against PHBPU
Method in brief: as §1

[26] = test system: Triticum aestivum (TRZAS); conditions: crop plant compatibility, effect vs untreated controls
Method in brief: as §3

[27] = 80 g/ha, scored visually after about 3 weeks vs untreated controls, 0% = like control plants
[28] = Dosage column 320 g/ha (title prints 3200 g/ha), scored visually after about 3 weeks
[29] = 80 g/ha, visual rating about 3 weeks after treatment vs untreated controls (100% = plants have died, 0% = like control plants)
[30] = 320 g/ha, visual rating about 3 weeks after treatment

Row | SMILES | Post-emergence action against SETVI in % (Setaria viridis (SETVI) [1]; dosage 320 g/ha) [%] | Pre-emergence action against POLCO in % [2] [%] | Pre-emergence action against LOLRI in % (Lolium rigidum (LOLRI) [3]; dosage 320 g/ha) [%] | Pre-emergence action against AMARE in % ([4]; 320 g/ha) [%] | Pre-emergence action against ABUTH [5, 28] [%] | Post-emergence action against ALOMY in % ([6]; 320 g/ha) [%] | Post-emergence action against LOLRI in % (Lolium rigidum (LOLRI) [7]; dosage 320 g/ha) [%] | Pre-emergence action against ALOMY ([8]; 320 g/ha) [%] | Pre-emergence action against PHBPU in % [9] [%] | Post-emergence action against ORYSA in % (Oryza sativa (ORYSA)) [%] | Pre-emergence action against VIOTR in % (Viola tricolor (VIOTR) [12]; 320 g/ha, Viola tricolor) [%] | Pre-emergence action against VIOTR in % (Viola tricolor (VIOTR) [12]; dosage 80 g/ha) [%] | Pre-emergence action against SETVI in % (Setaria viridis (SETVI) [13]; dosage 320 g/ha) [%] | Pre-emergence action against AVEFA in % (Avena fatua (AVEFA) [14]; 320 g/ha) [%] | Post-emergence action against AMARE in % [15, 30] [%] | Post-emergence action against ABUTH in % ([16]; 80 g/ha) [%] | Post-emergence action against ABUTH in % ([16]; 320 g/ha) [%] | Post-emergence action against VERPE in % ([17]; 320 g/ha, VERPE) [%] | Pre-emergence action against MATIN in % ([19]; dosage 320 g/ha) [%] | Post-emergence action against VIOTR in % (Viola tricolor (VIOTR) [20]; 320 g/ha) [%] | further results
1 | O=C(O)COc1nn(-c2ncccc2C(F)(F)F)c(-c2ccc(F)nc2)c1Cl [Example I-327] | 90 | 90 | 100 | 100 | 100 | 100 | 90 | 100 | 80 | 0 | 100 | 100 | 100 | 80 | 90 | 80 | 90 | 90 | 80 | 90 | Pre-emergence action against ABUTH [5, 27]: 100%; Post-emergence action against POLCO in % [10]: 80%; Post-emergence action against ZEAMX in % (Zea mays (ZEAMX) [11]): 0%; Post-emergence action against AMARE in % [15, 29]: 90%; Post-emergence action against VERPE in % ([17]; dosage 80 g/ha): 80%; Pre-emergence action against ZEAMX in % (Zea mays (ZEAMX) [18]): 20%; Pre-emergence action against MATIN in % ([19]; dosage 80 g/ha): 80%; Post-emergence action against VIOTR in % (Viola tricolor (VIOTR) [20]; 80 g/ha): 90%; Post-emergence action against ECHCG in % ([21]; dosage 80 g/ha): 80%; Post-emergence action against ECHCG in % ([21]; dosage 320 g/ha): 90%
2 | CCOC(=O)COc1nn(-c2nc(F)ccc2F)c(-c2ccc(F)nc2)c1Br [Example I-330] | 80 | 90 | 90 | 100 | 100 | 90 | 90 | 100 | 90 | 10 | 100 | 90 | 100 | 90 | 80 | 80 | 80 | 80 | 90 | 80 | Pre-emergence action against ECHCG in % ([22]; dosage 320 g/ha): 100%; Post-emergence action against AVEFA in % (Avena fatua (AVEFA) [23]): 80%; Post-emergence action against ALOMY in % ([6]; 80 g/ha): 80%; Pre-emergence action against VERPE in % [24]: 90%; Post-emergence action against ZEAMX in % (Zea mays (ZEAMX) [11]): 10%; Post-emergence action against PHBPU in % ([25]; dosage 80 g/ha): 80%; Post-emergence action against PHBPU in % ([25]; dosage 320 g/ha): 90%; Pre-emergence action against AVEFA in % (Avena fatua (AVEFA) [14]; 80 g/ha): 80%; Post-emergence action against AMARE in % [15, 29]: 80%; Post-emergence action against VERPE in % ([17]; dosage 80 g/ha): 80%; Pre-emergence action against ZEAMX in % (Zea mays (ZEAMX) [18]): 20%; Pre-emergence action against MATIN in % ([19]; dosage 80 g/ha): 80%; Post-emergence action against ECHCG in % ([21]; dosage 80 g/ha): 80%; Post-emergence action against ECHCG in % ([21]; dosage 320 g/ha): 90%
3 | CCOC(=O)COc1nn(-c2ccnc(Cl)c2)c(-c2ccc(F)nc2)c1Br [III-24] | 100 | 100 | 100 | 100 | 100 | 100 | 100 | 100 | 100 | 0 | 100 | 100 | 100 | 100 | 100 | 90 | 90 | 80 | 100 | 90 | Post-emergence action against SETVI in % (Setaria viridis (SETVI) [1]; dosage 80 g/ha): 100%; Pre-emergence action against ECHCG in % ([22]; dosage 80 g/ha): 90%; Pre-emergence action against ECHCG in % ([22]; dosage 320 g/ha): 100%; Pre-emergence action against LOLRI in % (Lolium rigidum (LOLRI) [3]; dosage 80 g/ha): 100%; Post-emergence action against AVEFA in % (Avena fatua (AVEFA) [23]): 80%; Pre-emergence action against AMARE in % ([4]; 80 g/ha): 100%; Pre-emergence action against ABUTH [5, 27]: 90%; Post-emergence action against ALOMY in % ([6]; 80 g/ha): 100%; Post-emergence action against LOLRI in % (Lolium rigidum (LOLRI) [7]; dosage 80 g/ha): 100%; Pre-emergence action against ALOMY ([8]; 80 g/ha): 100%; Pre-emergence action against VERPE in % [24]: 100%; Post-emergence action against POLCO in % [10]: 90%; Post-emergence action against TRZAS in % ([26]; 80 g/ha): 0%; Post-emergence action against TRZAS in % ([26]; 320 g/ha): 0%; Pre-emergence action against SETVI in % (Setaria viridis (SETVI) [13]; dosage 80 g/ha): 100%; Pre-emergence action against AVEFA in % (Avena fatua (AVEFA) [14]; 80 g/ha): 100%; Post-emergence action against VIOTR in % (Viola tricolor (VIOTR) [20]; 80 g/ha): 80%; Post-emergence action against ECHCG in % ([21]; dosage 80 g/ha): 80%; Post-emergence action against ECHCG in % ([21]; dosage 320 g/ha): 100%

Reference: patent US20240041042A1, “1-(PYRIDYL)-5-AZINYLPYRAZOLE DERIVATIVES, AND THEIR USE FOR CONTROL OF UNDESIRED PLANT GROWTH” (Bayer Aktiengesellschaft, priority 2020, published 2024)
